Read-outs that look alike come from different tables or passages of the source.
Experiments:
Assay in all cases: NCI single dose screening (10 µM)
Type in all cases: cell-based
[1] = system: 786-0; conditions: Homo sapiens
[2] = system: HT-29; conditions: Homo sapiens
[3] = system: HS 578 T; conditions: Homo sapiens, read-out: GI% (cell growth inhibition percentage)
[4] = system: SK-MEL-28; conditions: Homo sapiens
[5] = system: CAKI-1; conditions: Homo sapiens
[6] = system: M14; conditions: Homo sapiens
[7] = system: SW-620; conditions: Homo sapiens
[8] = system: DU-145; conditions: Homo sapiens
[9] = system: MALME-3M; conditions: Homo sapiens, read-out: GI% (cell growth inhibition percentage)
[10] = system: NCI-H460; conditions: Homo sapiens
[11] = system: TK-10; conditions: Homo sapiens
[12] = system: SF-295; conditions: Homo sapiens
[13] = system: ACHN; conditions: Homo sapiens, read-out: GI% (cell growth inhibition percentage)
[14] = system: K-562; conditions: Homo sapiens
[15] = system: HL-60(TB); conditions: Homo sapiens
[16] = system: T-47D; conditions: Homo sapiens, T47D, read-out: GI% (cell growth inhibition percentage)
[17] = system: A549/ATCC; conditions: Homo sapiens
[18] = system: U251; conditions: Homo sapiens
[19] = system: NCI-H522; conditions: Homo sapiens
[20] = system: HCT-116; conditions: Homo sapiens
[21] = system: EKVX; conditions: Homo sapiens, read-out: GI% (cell growth inhibition percentage)
[22] = system: SN12C; conditions: Homo sapiens, read-out: GI% (cell growth inhibition percentage)
[23] = system: CCRF-CEM; conditions: Homo sapiens, read-out: GI% (cell growth inhibition percentage)
[24] = system: UO-31; conditions: Homo sapiens
[25] = system: MDA-MB-468; conditions: Homo sapiens
[26] = system: SNB-19; conditions: Homo sapiens
[27] = system: NCI/ADR-RES; conditions: Homo sapiens, read-out: GI% (cell growth inhibition percentage)
[28] = system: NCI-H23; conditions: Homo sapiens
[29] = system: HCC-2998; conditions: Homo sapiens
[30] = system: MOLT-4; conditions: Homo sapiens
[31] = system: HCT-15; conditions: Homo sapiens
[32] = system: PC-3; conditions: Homo sapiens
[33] = Renal cancer, single dose 10^−5 M

Structure (SMILES): Cc1c(C(=O)N/N=C2\C(=O)Nc3ccc(Br)cc32)oc2ccccc12 [Compound 5c]
- inhibition at 10 µM ([1]; 786-0, Renal cancer, single dose 10^−5 M, read-out: GI% (cell growth inhibition percentage)): 34.7%
- inhibition at 10 µM ([2]; HT-29, Colon cancer, single dose 10^−5 M, read-out: GI% (cell growth inhibition percentage)): < 10%
- inhibition at 10 µM ([3]; HS 578 T, Breast cancer, single dose 10^−5 M): 46.3%
- inhibition at 10 µM ([4]; SK-MEL-28, Melanoma, single dose 10^−5 M, read-out: GI% (cell growth inhibition percentage)): < 10%
- inhibition at 10 µM ([5]; CAKI-1, Renal cancer, single dose 10^−5 M, read-out: GI% (cell growth inhibition percentage)): 26.6%
- inhibition at 10 µM ([6]; M14, Melanoma, single dose 10^−5 M, read-out: GI% (cell growth inhibition percentage)): 25.4%
- inhibition at 10 µM ([7]; SW-620, Colon cancer, single dose 10^−5 M, read-out: GI% (cell growth inhibition percentage)): 10.6%
- inhibition at 10 µM ([8]; DU-145, Prostate cancer, single dose 10^−5 M, read-out: GI% (cell growth inhibition percentage)): 17%
- inhibition at 10 µM ([9]; MALME-3M, Melanoma, single dose 10^−5 M): 64.9%
- inhibition at 10 µM ([10]; NCI-H460, Non-small cell lung cancer, single dose 10^−5 M, read-out: GI% (cell growth inhibition percentage)): 42.6%
- inhibition at 10 µM ([11]; TK-10, Renal cancer, single dose 10^−5 M, read-out: GI% (cell growth inhibition percentage)): < 10%
- inhibition at 10 µM ([12]; SF-295, CNS cancer, single dose 10^−5 M, read-out: GI% (cell growth inhibition percentage)): 20.3%
- inhibition at 10 µM [13, 33]: 35.5%
- inhibition at 10 µM ([14]; K562, K-562, Leukaemia, single dose 10^−5 M, read-out: GI% (cell growth inhibition percentage)): 18%
- inhibition at 10 µM ([15]; HL-60(TB), Leukaemia, single dose 10^−5 M, read-out: GI% (cell growth inhibition percentage)): 21.5%
- inhibition at 10 µM ([16]; T-47D, Breast cancer, single dose 10^−5 M): 42.7%
- inhibition at 10 µM ([17]; A549/ATCC, Non-small cell lung cancer, single dose 10^−5 M, read-out: GI% (cell growth inhibition percentage)): 27.9%
- inhibition at 10 µM ([18]; U-251, U251, CNS cancer, single dose 10^−5 M, read-out: GI% (cell growth inhibition percentage)): 42.6%
- inhibition at 10 µM ([19]; NCI-H522, Non-small cell lung cancer, single dose 10^−5 M, read-out: GI% (cell growth inhibition percentage)): 10.3%
- inhibition at 10 µM ([20]; HCT-116, Colon cancer, single dose 10^−5 M, read-out: GI% (cell growth inhibition percentage)): 32%
- inhibition at 10 µM ([21]; Non-small cell lung cancer, single dose 10^−5 M): 32.1%
- inhibition at 10 µM [22, 33]: 29.8%
- inhibition at 10 µM ([23]; Leukaemia, single dose 10^−5 M): < 10%
- inhibition at 10 µM ([24]; UO-31, Renal cancer, single dose 10^−5 M, read-out: GI% (cell growth inhibition percentage)): 43.4%
- inhibition at 10 µM ([25]; MDA-MB-468, Breast cancer, single dose 10^−5 M, read-out: GI% (cell growth inhibition percentage)): < 10%
- inhibition at 10 µM ([26]; SNB-19, CNS cancer, single dose 10^−5 M, read-out: GI% (cell growth inhibition percentage)): 31.5%
- inhibition at 10 µM ([27]; Ovarian cancer, single dose 10^−5 M): 29.3%
- inhibition at 10 µM ([28]; NCI-H23, Non-small cell lung cancer, single dose 10^−5 M, read-out: GI% (cell growth inhibition percentage)): 33%
- inhibition at 10 µM ([29]; HCC-2998, Colon cancer, single dose 10^−5 M, read-out: GI% (cell growth inhibition percentage)): < 10%
- inhibition at 10 µM ([30]; MOLT-4, Leukaemia, single dose 10^−5 M, read-out: GI% (cell growth inhibition percentage)): < 10%
- inhibition at 10 µM ([31]; HCT-15, Colon cancer, single dose 10^−5 M, read-out: GI% (cell growth inhibition percentage)): < 10%
- inhibition at 10 µM ([32]; PC-3, Prostate cancer, single dose 10^−5 M, read-out: GI% (cell growth inhibition percentage)): 13.8%

Structure (SMILES): CCCN1C(=O)/C(=N\NC(=O)c2oc3ccccc3c2C)c2ccccc21 [Compound 7b]
- inhibition at 10 µM ([1]; 786-0, read-out: GI% (cell growth inhibition percentage)): < 10%
- inhibition at 10 µM ([2]; HT-29, read-out: GI% (cell growth inhibition percentage)): < 10%
- inhibition at 10 µM ([3]; Hs-578T): < 10%
- inhibition at 10 µM ([4]; SK-MEL-28, read-out: GI% (cell growth inhibition percentage)): < 10%
- inhibition at 10 µM ([5]; CAKI-1, read-out: GI% (cell growth inhibition percentage)): 11.3%
- inhibition at 10 µM ([6]; M14, read-out: GI% (cell growth inhibition percentage)): < 10%
- inhibition at 10 µM ([7]; SW-620, read-out: GI% (cell growth inhibition percentage)): < 10%
- inhibition at 10 µM ([8]; DU-145, read-out: GI% (cell growth inhibition percentage)): < 10%
- inhibition at 10 µM ([9]; Malme-3M): < 10%
- inhibition at 10 µM ([10]; NCI-H460, read-out: GI% (cell growth inhibition percentage)): 15.6%
- inhibition at 10 µM ([11]; TK-10, read-out: GI% (cell growth inhibition percentage)): < 10%
- inhibition at 10 µM ([12]; SF-295, read-out: GI% (cell growth inhibition percentage)): 11.9%
- inhibition at 10 µM [13]: 11.6%
- inhibition at 10 µM ([14]; K562, read-out: GI% (cell growth inhibition percentage)): 11.4%
- inhibition at 10 µM ([15]; HL-60, read-out: GI% (cell growth inhibition percentage)): 10.9%
- inhibition at 10 µM [16]: 23.8%
- inhibition at 10 µM ([17]; A549, read-out: GI% (cell growth inhibition percentage)): < 10%
- inhibition at 10 µM ([18]; U-251, read-out: GI% (cell growth inhibition percentage)): < 10%
- inhibition at 10 µM ([19]; NCI-H522, read-out: GI% (cell growth inhibition percentage)): 10.3%
- inhibition at 10 µM ([20]; HCT-116, read-out: GI% (cell growth inhibition percentage)): < 10%
- inhibition at 10 µM [21]: 32.4%
- inhibition at 10 µM [22]: < 10%
- inhibition at 10 µM [23]: < 10%
- inhibition at 10 µM ([24]; UO-31, read-out: GI% (cell growth inhibition percentage)): 34.3%
- inhibition at 10 µM ([25]; MDA-MB-468, read-out: GI% (cell growth inhibition percentage)): < 10%
- inhibition at 10 µM ([26]; SNB-19, read-out: GI% (cell growth inhibition percentage)): < 10%
- inhibition at 10 µM [27]: 10.3%
- inhibition at 10 µM ([28]; NCI-H23, read-out: GI% (cell growth inhibition percentage)): 15.1%
- inhibition at 10 µM ([29]; HCC 2998, read-out: GI% (cell growth inhibition percentage)): < 10%
- inhibition at 10 µM ([30]; MOLT-4, read-out: GI% (cell growth inhibition percentage)): < 10%
- inhibition at 10 µM ([31]; HCT-15, read-out: GI% (cell growth inhibition percentage)): < 10%
- inhibition at 10 µM ([32]; PC-3, read-out: GI% (cell growth inhibition percentage)): 10.8%
